Type in all cases: cell-based
The test system of experiment [1] is starch degrading bacteria. In words: Prevention of starch degradation in head box stock using performic acid (PFA) and zinc; remaining starch by iodine staining. Conditions: for Prevention of starch degradation (in words): 10 mg/l zinc or 20-120 mg/l PFA alone; for Starch concentration 4 h: contact time 4 h; for Starch concentration 24 h: contact time 24 h. As for the experimental part:
(§1) Prevention of starch degradation was studied using an oxidizing biocide (performic acid, PFA) and zinc. Head box stock from packaging board mill, stored at +4° C. after collecting, was amended with 0.8 g/l cooked starch and incubated overnight at 45° C. with 150 rpm shaking to induce the growth of starch degrading bacteria. The stock was divided into 30 ml portions and appropriate amounts of zinc (Zn^2+ from zinc chloride) and PFA were added together with a new starch addition (400 mg/l). After 4 h and 24 h incubation (+45° C., 150 rpm) the remaining starch was quantified using iodine staining (Lugol-solution) at 590 nm. An external standard curve was used to convert absorbance values into starch amounts.

Experiment [2] has as its system starch degrading bacteria. In words: Prevention of starch degradation in head box stock using monochloramine (MCA) and zinc; remaining starch by iodine staining. Conditions: for Prevention of starch degradation (in words): 10 mg/l zinc or MCA alone; for Starch concentration 4 h: contact time 4 h; for Starch concentration 24 h: contact time 24 h. As for the experimental part: as §1, with “(monochloramine, MCA)” for “(performic acid, PFA)”, “MCA” for “PFA”

The subject of experiment [3] is starch degrading bacteria. In words: Prevention of starch degradation in head box stock using chlorine dioxide (ClO2) and zinc; remaining starch by iodine staining. Conditions: for Prevention of starch degradation (in words): 10 mg/l zinc or 5-20 mg/l ClO2 alone; for Starch concentration 4 h: contact time 4 h; for Starch concentration 24 h: contact time 24 h. As for the experimental part:
as §1, with “(chlorine dioxide, ClO2)” for “(performic acid, PFA)”, “ClO2” for “PFA”

In experiment [4] the test system is starch degrading bacteria. The experiment is described as follows: Prevention of starch degradation in head box stock using glutaraldehyde and zinc; remaining starch by iodine staining. Conditions: for Prevention of starch degradation (in words): 10 mg/l zinc or 5-30 mg/l glutaraldehyde alone; for Starch concentration 4 h: contact time 4 h; for Starch concentration 24 h: contact time 24 h. As to the method: as §1, with “a non-oxidizing” for “an oxidizing”, “(glutaraldehyde)” for “(performic acid, PFA)”, “glutaraldehyde” for “PFA”

[5] abbreviates: Zn 10 mg/l (mg Zn2+ per l), 400 mg/l starch added.
Setting [6] is: PFA 11 mg/l (active ingredient).
Setting [7] is: PFA 16 mg/l (active ingredient).

Take `[Cl-].[Cl-].[Zn+2]` [Zn, zinc chloride]: the “Prevention of starch degradation (in words)” value (“Prevention” for short) in experiment [1] (4 h) was “prevented most of the starch degradation”; in experiment [1] (24 h), “did not have marked effect”; in experiment [2] (4 h) it was “prevented most of the starch degradation”; in experiment [2] (24 h), “did not have any effect”; in experiment [3] (4 h), “prevented most of the starch degradation”; in experiment [3] (24 h), “did not have marked effect”. Also, the “Prevention” value is on record as “prevented some of the starch degradation” in experiment [4] (4 h) and “did not have marked effect” in experiment [4] (24 h). For the same compound, the “Starch concentration 4 h” value in experiment [1] (Zn 10 mg/l (mg Zn2+ per l)) turned out to be 181 mg/L; in experiment [2] (setting [5]) it was 177 mg/L; in experiment [3] (Zn 10 mg/l (mg Zn2+ per l)), 219 mg/L; in experiment [4] (Zn 10 mg/l (mg Zn2+ per l)), 193 mg/L. Also, the “Starch concentration 24 h” value is 38 mg/L in experiment [1] (Zn 10 mg/l (mg Zn2+ per l)), 8 mg/L in experiment [2] (setting [5]), 28 mg/L in experiment [3] (Zn 10 mg/l (mg Zn2+ per l)) and 21 mg/L in experiment [4] (Zn 10 mg/l (mg Zn2+ per l)).

For the compound `[O][Cl+][O-]` [ClO2, chlorine dioxide], the “Prevention” value in experiment [3] (4 h) was “prevented most of the starch degradation”; in experiment [3] (24 h), “did not have marked effect”. Besides, the “Starch concentration 4 h” value in experiment [3] (ClO2 5 mg/l) was found to be 128 mg/L; in experiment [3] (ClO2 9 mg/l) it was 153 mg/L; in experiment [3] (ClO2 14 mg/l) it was 197 mg/L; in experiment [3] (ClO2 20 mg/l), 227 mg/L. The “Starch concentration 24 h” value in experiment [3] (ClO2 5 mg/l) was 5 mg/L; in experiment [3] (ClO2 9 mg/l), 12 mg/L; in experiment [3] (ClO2 14 mg/l) it was 13 mg/L; in experiment [3] (ClO2 20 mg/l), 19 mg/L.

For `NCl` [MCA, monochloramine], the “Prevention” value was “prevented most of the starch degradation” in experiment [2] (4 h) and “did not have any effect” in experiment [2] (24 h). Also, the “Starch concentration 4 h” value turned out to be 158 mg/L in experiment [2] (MCA 10 mg/l (active chlorine)) and 189 mg/L in experiment [2] (MCA 20 mg/l (active chlorine)). In addition, the results for the “Starch concentration 24 h” value in experiment [2] (MCA 10 mg/l (active chlorine)) and in experiment [2] (MCA 20 mg/l (active chlorine)) were 5 mg/L and 41 mg/L, respectively.

Consider `O=COO` [PFA, performic acid], for which the “Prevention” value in experiment [1] (4 h) is “prevented most of the starch degradation”; in experiment [1] (24 h), “did not have marked effect”. Further, the “Starch concentration 4 h” value in experiment [1] (PFA 3 mg/l (active ingredient)) amounted to 114 mg/L; in experiment [1] (PFA 5 mg/l (active ingredient)), 157 mg/L; in experiment [1] (setting [6]), 208 mg/L; in experiment [1] (setting [7]) it was 215 mg/L. Besides, the “Starch concentration 24 h” value was determined as 3 mg/L in experiment [1] (PFA 3 mg/l (active ingredient)), 3 mg/L in experiment [1] (PFA 5 mg/l (active ingredient)), 5 mg/L in experiment [1] (setting [6]) and 11 mg/L in experiment [1] (setting [7]).

For the compound `O=CCCCC=O` [GL, glutaraldehyde], the “Prevention” value is “prevented some of the starch degradation” in experiment [4] (4 h) and “did not have marked effect” in experiment [4] (24 h). Also, the “Starch concentration 4 h” value in experiment [4] (GL 5 mg/l (active substance)) was 85 mg/L; in experiment [4] (GL 10 mg/l (active substance)) it was 103 mg/L; in experiment [4] (GL 20 mg/l (active substance)) it was 96 mg/L; in experiment [4] (GL 30 mg/l (active substance)), 93 mg/L. In addition, the “Starch concentration 24 h” value in experiment [4] (GL 5 mg/l (active substance)) was 3 mg/L; in experiment [4] (GL 10 mg/l (active substance)), 5 mg/L; in experiment [4] (GL 20 mg/l (active substance)) it was 4 mg/L; in experiment [4] (GL 30 mg/l (active substance)), 6 mg/L.
